Data published in patent publication US9796753B2, “N-substituted indenoisoquinolines and syntheses thereof” (Purdue Research Foundation, priority 2005, dated 2017).
Where two headings read alike, the source gives them in different places.

Assays:
CNS SF-539 = test: COMPARE screening (NCI human cancer cell line screen), cytotoxicity GI50; type: cell-based
In short: (§1)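 Sulforhodamine B read-out after 48 h exposure over five log concentrations (0.01-100 μM) in the NCI 60-cell-line panel. GI50 derived from percentage growth, as OD ratio to control, versus log10 concentration.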

colon HCT-116 = test: as above; type: cell-based
In short: as §1

lung HOP-62 = test: as above; type: cell-based
In short: as §1

melanoma UACC-62 = test: as above; type: cell-based
In short: as §1

ovarian OVCAR-3 = test: as above; type: cell-based
In short: as §1

prostate DU-145 = test: as above; type: cell-based
In short: as §1

renal SN12C = test: as above; type: cell-based
In short: as §1

breast MDA-MB-435 = test: as above; type: cell-based
Procedure: COMPARE screening. The compounds described herein were examined for antiproliferative activity against the human cancer cell lines in the National Cancer Institute screen (COMPARE screening), in which the activity of each compound was evaluated with approximately 55 different cancer cell lines of diverse tumor origins. […] Therefore, the MGM value represents an overall assessment of toxicity of the compound across numerous cell lines.

[1] = tested on: all human cancer cell lines successfully tested; test: NCI screen mean graph midpoint (MGM) for growth inhibition; type: cell-based
In short: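 NCI60 panel cells exposed to compound at 100, 10, 1, 0.1 and 0.01 μM for 48 h, then sulforhodamine B staining. Percentage growth versus control plotted against log concentration; MGM is the midpoint across all lines tested.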

[2] = tested on: panel of twelve human tumor cell lines; test: Hollow fiber assay; type: in vivo; design: key to IP Score / SC score / Total score: 2 points each time viable cell mass falls ≥50% vs vehicle controls; key to Cell kill: A net cell kill at one or more implant sites is indicated with a Y; conditions: for IP Score: intraperitoneal fibers in athymic nude mice, score 2 per 50% or greater reduction in viable cell mass; for IP Score / SC score: compounds IP once daily, four doses, two dose levels; for SC score: subcutaneous fibers in athymic nude mice; for Total score: sum of IP and SC scores; for Cell kill: net cell kill at one or more implant sites
Procedure: Hollow Fiber Activity. […] The effects of the compounds on the reduction of viable cancer cell mass compared to those of controls were determined. Each compound was tested in the hollow fiber assay against a panel of twelve human tumor cell lines as described previously; see, Hollingshead, M.; Plowman, J.; Alley, M.; Mayo, J.; Sausville, E., The Hollow Fiber Assay. Contrib. Oncol. 1999, 54, 109-120; and Plowman, J.; Camalier, R.; Alley, M.; Sausville, E.; Schepartz, S. Contrib. Oncol. […] The compounds were solubilized in 10% DMSO in saline/Tween-80® and administered intraperitoneally once daily for a total of four doses at each of two dose levels. The two doses were selected based on single dose toxicity studies for each derivative. A score of 2 was assigned each time the compound produced a 50% or greater reduction in viable cell mass compared to vehicle-treated controls. The score for each compound was summed for the intraperitoneal fibers and the subcutaneous fibers to provide the total score for each derivative as shown in Table 3 and Table 4. For comparative purposes, the score for the clinically used anticancer drug paclitaxel is provided.

recombinant TDP1 = recombinant TDP1 (Homo sapiens, UniProt Q9NUW8); test: Gel-based assay measuring the inhibition of recombinant TDP1; type: biochemical; conditions: Table 7; scores correspond to IC50 ranges; read-out: TDP1 inhibition
Sequence of recombinant TDP1 (Q9NUW8 whole entry): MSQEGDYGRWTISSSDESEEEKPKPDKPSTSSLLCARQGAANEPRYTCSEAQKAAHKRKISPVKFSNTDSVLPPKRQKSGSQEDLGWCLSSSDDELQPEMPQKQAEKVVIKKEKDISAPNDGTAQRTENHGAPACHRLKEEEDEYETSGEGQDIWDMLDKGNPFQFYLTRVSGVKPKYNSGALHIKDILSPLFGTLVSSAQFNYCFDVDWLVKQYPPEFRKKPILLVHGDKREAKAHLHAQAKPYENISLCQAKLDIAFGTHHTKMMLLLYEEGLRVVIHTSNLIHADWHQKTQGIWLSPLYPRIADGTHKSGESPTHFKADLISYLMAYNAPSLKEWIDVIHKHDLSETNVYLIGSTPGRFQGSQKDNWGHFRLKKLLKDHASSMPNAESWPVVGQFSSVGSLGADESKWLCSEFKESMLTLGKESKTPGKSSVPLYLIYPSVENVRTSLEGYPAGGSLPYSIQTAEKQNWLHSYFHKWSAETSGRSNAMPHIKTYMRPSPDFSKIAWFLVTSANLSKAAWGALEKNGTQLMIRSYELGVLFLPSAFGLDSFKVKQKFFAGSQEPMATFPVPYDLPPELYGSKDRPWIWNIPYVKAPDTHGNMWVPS
Procedure: A 5′-[^32P]-labeled single-stranded DNA oligonucleotide containing a 3′-phosphotyrosine (N14Y) was generated as described by Dexheimer et al. (J. Med. Chem. 2009, 52, 7122-7131). The DNA substrate was then incubated with 5 μM recombinant TDP1 in the absence or presence of inhibitor for 15 min at room temperature in a buffer containing 50 mM Tris HCl, pH 7.5, 80 mM KCl, 2 mM EDTA, 1 mM DTT, 40 μg/ml BSA and 0.01% Tween-20. Reactions were terminated by the addition of 1 volume of gel loading buffer [99.5% (v/v) formamide, 5 mM EDTA, 0.01% (w/v) xylene cyanol, and 0.01% (w/v) bromophenol blue]. Samples were subjected to a 16% denaturing PAGE and gels were exposed after drying to a PhosphorImager screen (GE Healthcare). Gel images were scanned using a Typhoon 8600 (GE Healthcare) and densitometric analyses were performed using the ImageQuant software (GE Healthcare).
The TDP1 inhibitory activities of the O-2-substituted indenoisoquinolines were measured by determining their abilities to inhibit the hydrolysis of the phosphodiester linkage between tyrosine and the 3′-end of a DNA oligonucleotide substrate and thus prevent the generation of an oligonucleotide with a free 3′-phosphate (N14P, Scheme 13). Therefore, the disappearance of the gel band for N14P indicates TDP1 inhibition.
Tyrosyl-DNA phosphodiesterase 1 (TDP1) is a DNA repair enzyme that repairs cytotoxic DNA damage induced by Top1 inhibitors.

[3] = Table 1, concentration corresponding to 50% growth inhibition, read-out: cytotoxicity (GI50) ovarian OVCAR-3
[4] = Table 1, average GI50 of all cell lines tested (approximately 55), test range 10^−8 to 10^−4 molar
[5] = CNS SF-539, concentration corresponding to 50% growth inhibition, read-out: cytotoxicity (GI50 in μM) CNS SF-539
[6] = colon HCT-116, concentration corresponding to 50% growth inhibition, read-out: cytotoxicity (GI50 in μM) colon HCT-116
[7] = lung HOP-62, concentration corresponding to 50% growth inhibition, read-out: cytotoxicity (GI50 in μM) lung HOP-62
[8] = melanoma UACC-62, concentration corresponding to 50% growth inhibition, read-out: cytotoxicity (GI50 in μM) melanoma UACC-62
[9] = ovarian OVCAR-3, concentration corresponding to 50% growth inhibition, read-out: cytotoxicity (GI50 in μM) ovarian OVCAR-3
[10] = renal SN12C, concentration corresponding to 50% growth inhibition, read-out: cytotoxicity (GI50 in μM) renal SN12C
[11] = breast MDA-MB-435, concentration corresponding to 50% growth inhibition, read-out: cytotoxicity (GI50 in μM) breast MDA-MB-435
[12] = all human cancer cell lines successfully tested

| SMILES | GI50 (CNS SF-539) [µM] | GI50 (colon HCT-116) [µM] | GI50 (lung HOP-62) [µM] | GI50 (melanoma UACC-62) [µM] | GI50 (prostate DU-145) [µM] | GI50 (renal SN12C) [µM] | GI50 (breast MDA-MB-435) [µM] | MGM (mean graph midpoint for growth inhibition) [1, 4] [µM] | IP Score ([2]; Table 3) | SC score ([2]; Table 3) | Total score ([2]; Table 3) | MGM (mean graph midpoint for growth inhibition) [1, 12] [µM] | IP Score ([2]; Table 4) | SC score ([2]; Table 4) | Total score ([2]; Table 4) | further results |
| --- | --- | --- | --- | --- | --- | --- | --- | --- | --- | --- | --- | --- | --- | --- | --- | --- |
| COc1cc2c3c(n(CCCN4CCNCC4)c(=O)c2cc1OC)-c1cc2c(cc1C3=O)OCO2.Cl.Cl [Compound 5p, 6-(3-Piperazinyl-1-propyl)-5,6-dihydro-2,3-dimethoxy-8,9-methylenedioxy-5,11-dioxo-11H-indeno[1,2-c]isoquinoline Dihydrochloride] | < 0.005 | 0.575 | < 0.005 | 1.2 | 0.015 | 0.091 | 4.57 | 0.382 ± 0.119 | 16 | 2 | 18 | – | – | – | – | GI50 (ovarian OVCAR-3; [3]): 2.04 µM |
| COc1cc2c3c(n(CCCN4CCCC(O)C4)c(=O)c2cc1OC)-c1cc2c(cc1C3=O)OCO2.Cl (stereo not shown) [Compound 5s, 6-[3-(3-Hydroxypiperidinyl)-1-propyl]-5,6-dihydro-2,3-dimethoxy-8,9-methylenedioxy-5,11-dioxo-11H-indeno[1,2-c]isoquinoline Hydrochloride] | < 0.005 | < 0.005 | < 0.005 | 5.01 | < 0.005 | 0.126 | 0.977 | 0.243 ± 0.088 | 6 | 0 | 6 | – | – | – | – | GI50 (ovarian OVCAR-3; [3]): 5.75 µM |
| COc1cc2c3c(n(CCCN4CCCNCC4)c(=O)c2cc1OC)-c1cc2c(cc1C3=O)OCO2.Cl.Cl [Compound 5v, 6-(3-Homopiperazinyl-1-propyl)-5,6-dihydro-2,3-dimethoxy-8,9-methylenedioxy-5,11-dioxo-11H-indeno[1,2-c]isoquinoline Dihydrochloride] | 0.145 | 0.214 | < 0.005 | 0.457 | 0.081 | 0.145 | 2.63 | 0.715 ± 0.335 | 12 | 2 | 14 | – | – | – | – | GI50 (ovarian OVCAR-3; [3]): 5.01 µM |
| COc1cc2c3c(n(CCCN4CCN(CCO)CC4)c(=O)c2cc1OC)-c1cc2c(cc1C3=O)OCO2 [Compound 5w, 3-[(1-Hydroxyethyl-piperazine)-1-propyl]-5,6-dihydro-2,3-dimethoxy-8,9-methylenedioxy-5,11-dioxo-11H-indeno[1,2-c]isoquinoline] | 1.44 | 2.34 | 9.77 | 1.23 | 0.275 | > 100 | > 100 | 7.86 ± 0.27 | 8 | 0 | 8 | – | – | – | – | GI50 (ovarian OVCAR-3): 15.1 µM |
| O=C(O)C(F)(F)F.O=C(O)C(F)(F)F.O=C1c2ccccc2-c2c1c1ccccc1c(=O)n2CCNCCCNCCn1c2c(c3ccccc3c1=O)C(=O)c1ccccc1-2 [Compound 14d, Bis-1,3-{(5,6-dihydro-5,11-diketo-11H-indeno[1,2-c]isoquinoline)-6-ethylamino}propane Bis(trifluoroacetate)] | – | – | – | – | – | – | – | – | – | – | – | 0.122 ± 0.064 | 2 | 4 | 6 | GI50 (CNS SF-539; [5]): 0.155 µM; GI50 (colon HCT-116; [6]): < 0.005 µM; GI50 (lung HOP-62; [7]): 0.339 µM; GI50 (melanoma UACC-62; [8]): 0.182 µM; GI50 (ovarian OVCAR-3; [9]): 0.093 µM; GI50 (prostate DU-145; prostate DU-145, concentration corresponding to 50% growth inhibition, read-out: cytotoxicity (GI50 in μM) prostate DU-145): 0.079 µM; GI50 (renal SN12C; [10]): < 0.005 µM; GI50 (breast MDA-MB-435; [11]): 0.024 µM |
| O=C(O)C(F)(F)F.O=C(O)C(F)(F)F.O=C1c2ccccc2-c2c1c1ccccc1c(=O)n2CCCNCCCNCCCn1c2c(c3ccccc3c1=O)C(=O)c1ccccc1-2 [Compound 14g, Bis-1,3-{(5,6-dihydro-5,11-diketo-11H-indeno[1,2-c]isoquinoline)-6-propylamino}propane Bis(trifluoroacetate)] | – | – | – | – | – | – | – | – | – | – | – | 0.394 ± 0.33 | 26 | 6 | 32 | GI50 (CNS SF-539; [5]): 0.011 µM; GI50 (colon HCT-116; [6]): < 0.01 µM; GI50 (lung HOP-62; [7]): < 0.01 µM; GI50 (melanoma UACC-62; [8]): 0.042 µM; GI50 (ovarian OVCAR-3; [9]): 0.074 µM; GI50 (renal SN12C; [10]): < 0.01 µM; GI50 (breast MDA-MB-435; [11]): 0.107 µM |
| O=C(O)C(F)(F)F.O=C(O)C(F)(F)F.O=C1c2ccccc2-c2c1c1ccccc1c(=O)n2CCCNCCCCNCCCn1c2c(c3ccccc3c1=O)C(=O)c1ccccc1-2 [Compound 14h, Bis-1,4-{(5,6-dihydro-5,11-diketo-11H-indeno[1,2-c]isoquinoline)-6-propylamino}butane Bis(trifluoroacetate)] | 0.251 | < 0.005 | 0.525 | 0.562 | 0.234 | < 0.005 | 0.676 | – | – | – | – | 0.225 ± 0.084 | 12 | 4 | 16 | GI50 (ovarian OVCAR-3): 0.135 µM |
| O=C(O)C(F)(F)F.O=C(O)C(F)(F)F.O=C(O)C(F)(F)F.O=C1c2ccccc2-c2c1c1ccccc1c(=O)n2CCNCCNCCNCCn1c2c(c3ccccc3c1=O)C(=O)c1ccccc1-2 [Compound 14i, Bis{(5,6-dihydro-5,11-diketo-11H-indeno[1,2-c]isoquinoline)-6-ethylamino-ethyl}amine Tris(trifluoroacetate)] | 0.275 | 0.112 | 0.048 | 0.269 | 0.331 | 0.017 | 1 | – | – | – | – | 0.474 ± 0.143 | 10 | 6 | 16 | GI50 (ovarian OVCAR-3): 1.15 µM |
| O=C1c2cc3c(cc2-c2c1c1ccc(F)cc1c(=O)n2CCCn1ccnc1)OCO3 [Compound 36] | – | – | – | – | – | – | – | – | – | – | – | – | – | – | – | GI50 ([1]; Homo sapiens, read-out: MGM GI50): 11 nM; IC50 (recombinant TDP1): > 111000 nM |
| O=C1c2cc3c(cc2-c2c1c1ccc(F)cc1c(=O)n2CCCN1CCOCC1)OCO3 [Compound 37] | – | – | – | – | – | – | – | – | – | – | – | – | – | – | – | IC50 (recombinant TDP1): > 111000 nM |
| CC(=O)O[C@H]1C(=O)[C@@]2(C)[C@H]([C@H](OC(=O)c3ccccc3)[C@]3(O)C[C@H](OC(=O)[C@H](O)[C@@H](NC(=O)c4ccccc4)c4ccccc4)C(C)=C1C3(C)C)[C@]1(OC(C)=O)CO[C@@H]1C[C@@H]2O [Paclitaxel, paclitaxel, reference compound] | – | – | – | – | – | – | – | – | 24 | 8 | 32 | – | 24 | 8 | 32 | Cell kill ([2]; Table 3): Y; Cell kill ([2]; Table 4): Y |
